Results as given in patent publication US8748566B2, “Pharmacologically active antiviral peptides and methods of use” (priority 2000, dated 2014).

Columns and labels:
Format in all cases: cell-based
HSV-1 KOS [1] = test: Plaque reduction assay, HSV-1 KOS infection of Vero cell cultures
Procedure: The procedures for growing Vero cells and preparing high titer stocks of HSV-1 KOS as described in (Grau et al., Invest. Ophthal. and Vis. Sci. 30: 2474 (1989)) were utilized. Vero cells were maintained in carbonate-buffered DMEM supplemented with 5% calf serum and 5% fetal bovine serum (regular medium). For some studies, cells were switched to serum-free DMEM buffered with 25 mM Hepes (pH 7.4) and allowed to adapt to that medium for 30 min prior to experimental treatments. Vero cells were seeded into wells (0.28 cm^2) of microtiter plates either at 3.5×10^4 cells/well for use 1 day later (8×10^4 cells/well) or at 1×10^4 cells/well for use 3 days later (2×10^5 cells/well).
Confluent Vero cell cultures in microtiter plates were infected for 1 hour at 37° C. in 40 μl of medium. Except where indicated, peptide treatments in 40 μl of medium lasted from 1 hour before through 1 hour after infection. At the end of the adsorption period, the cultures were re-fed with 100 μl of regular medium. Plaque formation was scored 2 days later and the number of plaques scored per well was normalized to the number counted in the absence of peptide. Using an ocular micrometer, plaque size ([…]) was determined by measuring the largest plaque diameter (L) and the diameter at a 90° angle to that (S). The size of each of the first 40 scored plaques was measured except when a plaque included less than 10 rounded cells or touched the side of the well.

HSV-1 KOS [2] = test: Yield reduction assay (virus production in infected Vero cells); conditions: added one hour prior to infection; EB statement for concentrations exceeding 10 μM (FIG. 3)
Procedure: Three days post-infection, Vero cell cultures in microtiter plates were frozen (−80° C.) and thawed (37° C.) three times. Cells were suspended by repeated pipetting and microtiter plates were spun for 10 min at 700×g in a Beckman model TJ-6 tabletop centrifuge. The virus-containing supernates were serially diluted in regular medium and titered on Vero cells. Plaques were counted after staining the monolayers with crystal violet as taught by Grau et al., Invest. Ophthalmol. Vis. Sci. 30:2474 (1989).
Vero cell cultures as prepared in Example 1 were infected with HSV-1 and assayed for virus production as described in Example 1. The antiviral activity of an antiviral peptide according to the present invention EB (SEQ ID NO:1) was compared to the antiviral activity of the current HSV antiviral nucleoside standard, acyclovir. The two peptides were added to the Vero cells one hour prior to infection with HSV.

Vero cells = test: Trypan-blue exclusion assay (cytotoxicity)
Procedure: Uninfected Vero cells in serum-free or serum-supplemented DMEM where treated for 1 hour at 37° C. with antiviral peptide SEQ ID NO:1 or control peptide EBX (SEQ ID NO:17), rinsed with PBS, stained for […] at 23° C. with 0.4% trypan-blue in PBS, rinsed again with PBS and air dried.

hrR3 [3] = test: LacZ+ virus (hrR3) entry assay
Procedure: Confluent Vero cell cultures in 96-well microtiter plates were switched to Hepes-buffered serum-free DMEM, cooled on ice to 4° C. for 30 min, and infected with hrR3 for 1 hour at 4° C. in 40 μl of medium. Unattached virus was removed by rinsing with ice-cold medium. Treatments with antiviral peptide SEQ ID NO:1, referred to as EB, or a control peptide which comprised the RRKK tetra-peptide (SEQ ID NO:16) attached to a scrambled version of the membrane transiting peptide RRKKLAALPLVLAAPLAVLA (SEQ ID NO:17) (referred to as EBX), or mock-treatments with peptide-free medium were carried out in serum-free DMEM as indicated. Virus entry was initiated by transferring cultures to 37° C. To inactivate any remaining extracellular virus, cultures were rinsed with PBS and exposed to low pH citrate buffer (40 mM citric acid, 10 mM KCl, 135 mM NaCl, pH 3.0, according to Highlander et al., J. Virol. 61:3356 (1987), for 1 min at 23° C. The citrate was rinsed off with PBS and cultures were maintained in serum-supplemented DMEM until they were fixed with 0.5% gluteraldehyde in 5×PBS for 30 min at 23° C., stained for β-galactosidase activity for 1 hour or overnight at 23° C. with X-gal (Fisher Biotech; BP 1615-1) in 1×PBS containing […], 1.3 mM K4Fe(CN)6, and 1.3 mM K3Fe(CN)6, and scored for the presence of blue lacZ^+ cells.
In these studies, the hrR3 virus was pre-adsorbed to cells for 1 hour at 4° C. before ice cold 25 μM EB or EBX were added in serum-free DMEM. After an additional 1 hour at 4° C., cultures were shifted to 37° C. to initiate virus entry. At 15 min intervals following the temperature shift, any virus remaining outside the cells was inactivated by washing the cultures with low pH citrate buffer. Cultures were then rinsed and returned to peptide-free serum-supplemented DMEM until they were fixed and stained for f-galactosidase 8 hours after the temperature shift.
This conclusion is strengthened by the finding that the EB-sensitive phase of infection with pre-adsorbed virus clearly precedes expression of lacZ genes in hrR3 infected cells (FIG. 7A). Again, hrR3 was pre-adsorbed to cells for 1 hour at 4° C., unattached virus was rinsed off, and cells were kept for an additional hour at 4° C. Cultures were then transferred to 23° C. for 30 min before they were switched to 37° C. The more gradual change to 37° C. allowed cell layers to remain intact through subsequent frequent medium changes. Immediately following viral adsorption, cells were treated with 50 μM EB for 1 hour periods at consecutive 1 hour intervals. Between 1 and 4 hours post-infection, virus entry was inhibited by 70-80%. […] Parallel cultures were immediately fixed after mock-treatments and stained with X-gal. In these cultures, blue (lacZ^+) cells first appeared 7 hours post-infection and their number increased nearly linearly for the next 3 hours (FIG. 7A, (∘)). By 7 hours post-infection, EB ceased to be inhibitory.

hrR3 [4] = test: Virucidal assay; conditions: overnight dialysis against serum-containing medium
Procedure: […] The treated virus was diluted 200-fold with serum-supplemented DMEM and assayed for infectivity approximately 1 hour later in microtiter wells seeded with Vero cells (3.5×10^4 cells/well) 1 d earlier. Forty or 100 microliter volumes of diluted virus were adsorbed for 1 or 2 h at 37° C. and lacZ^+ cells were scored 8 hours later. In some experiments, aliquots of diluted virus were first dialyzed (Spectra/Por; MWCO 12-14,000) overnight at 4° C. against a 60-fold excess volume of Hepes-buffered serum-supplemented DMEM or forced by syringe through 0.22 μm membranes (Millex-GV; Millipore) before the remaining infectious virus was assayed.

H-RRKKAAVALLPAVLLALLAP-OH [EB] was tested, and the “effect on plaque size” value (HSV-1 KOS [1]; EB present before and during adsorption) was “no effect on plaque size”, the “fold lower concentration blocking infections compared to control peptide EBX” value (HSV-1 KOS [1]; absence of serum (FIG. 1B)) was 100 fold and the “effect on plaque formation” value (HSV-1 KOS [1]; peptide present during infection of Vero cells with HSV-1 KOS) was “blocking plaque formation”. For the same substance, the “fold lower concentration blocking infections compared to control peptide EBX” value (HSV-1 KOS [1]; presence of serum (FIG. 1A)) was 10 fold, the “combined mean plaque size” value (HSV-1 KOS [1]; transient treatments with 6 and 12 μM EB (up to 1 hour post-infection)) was 68,000±11,000 μm^2 and the “antiviral activity, EB compared with acyclovir” value (HSV-1 KOS [2]) was “greatest antiviral activity”. The “cytotoxic concentrations relative to antiviral concentrations” value (Vero cells) was 100 fold, the “inhibition of virus entry” value (hrR3 [3]; 50 μM EB for 1 hour periods, between 1 and 4 hours post-infection (FIG. 7A)) was 70-80% and the “effect on development of lacZ+ cells” value (hrR3 [3]; peptide added immediately after each citrate treatment (FIG. 6B)) was “no longer had any effect”. For the same substance, the “reversibility of virion inactivation” value (hrR3 [4]) was “irreversibly inactivated”.
